Results as given in PubChem BioAssay AID270 (DTP/NCI, 2004).
Values joined by “and” are separate entries in the source; they are usually repeats but may differ in a detail not shown here. Identical values can stand only once. Results filed as inconclusive are left out.

Test system: BDF1 mice, s.c. Lewis lung carcinoma, T/C %
Test: NCI In Vivo Anticancer Drug Screen. Data for tumor model Lewis Lung Carcinoma (subcutaneous) in B6D2F1 (BDF1) mice
Method in brief: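 Antitumor effect in vivo is scored from survival or tumor burden, reported as treated relative to vehicle controls.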

[1] = endpoint: median survival time, dose: 6.25 mg/kg/injection, schedule: Q01DX009 (ip), vehicle: saline with Tween-80, higher = longer survival
[2] = endpoint: median survival time, dose: 25.0 mg/kg/injection, schedule: Q01DX009 (ip), vehicle: saline with Tween-80, higher = longer survival
[3] = endpoint: median survival time, dose: 50.0 mg/kg/injection, schedule: Q01DX009 (ip), vehicle: saline with Tween-80, higher = longer survival

CC(C)CNc1ccc(S(=O)(=O)c2ccc(NCC(C)C)c([N+](=O)[O-])c2)cc1[N+](=O)[O-] was tested, and the T/C [1] was 110 % of control, the T/C (endpoint: median survival time, dose: 12.5 mg/kg/injection, schedule: Q01DX009 (ip), vehicle: saline with Tween-80, higher = longer survival) was 103 % of control and the T/C [2] was 109 % of control. The T/C [3] was 86 % of control.
With CN(C)CC(Cl)CCl (stereo not given) the T/C (endpoint: median survival time, dose: 50.0 mg/kg/injection, schedule: Q01DX009 (ip), vehicle: saline, higher = longer survival) was 117 % of control, the T/C (endpoint: median survival time, dose: 100.0 mg/kg/injection, schedule: Q01DX009 (ip), vehicle: saline, higher = longer survival) was 122 % of control and the T/C (endpoint: median survival time, dose: 200.0 mg/kg/injection, schedule: Q01DX009 (ip), vehicle: saline, higher = longer survival) was 105 % of control.
O=NN(CCCl)C(=O)NC1C2CC3CC(C2)CC1C3 (stereo not given) was tested, and the T/C (endpoint: median survival time, dose: 10.0 mg/kg/injection, schedule: Q01DX001 (ip), vehicle: Klucel (hydroxypropylcellulose) (HPC), higher = longer survival) was 99 % of control and 111 % of control, the T/C (endpoint: median survival time, dose: 20.0 mg/kg/injection, schedule: Q01DX001 (ip), vehicle: Klucel (hydroxypropylcellulose) (HPC), higher = longer survival) was 100 % of control and the T/C (endpoint: median survival time, dose: 25.0 mg/kg/injection, schedule: Q01DX001 (ip), vehicle: saline with Tween-80, higher = longer survival) was 102 % of control. For the same molecule, the T/C (endpoint: median survival time, dose: 38.0 mg/kg/injection, schedule: Q01DX001 (ip), vehicle: saline with Tween-80, higher = longer survival) was 101 % of control, the T/C (endpoint: median survival time, dose: 40.0 mg/kg/injection, schedule: Q01DX001 (ip), vehicle: Klucel (hydroxypropylcellulose) (HPC), higher = longer survival) was 106 % of control and the T/C (endpoint: median survival time, dose: 57.0 mg/kg/injection, schedule: Q01DX001 (ip), vehicle: saline with Tween-80, higher = longer survival) was 96 % of control. For the same molecule, the T/C (endpoint: median survival time, dose: 80.0 mg/kg/injection, schedule: Q01DX001 (ip), vehicle: Klucel (hydroxypropylcellulose) (HPC), higher = longer survival) was 110 % of control, the T/C (endpoint: median survival time, dose: 85.0 mg/kg/injection, schedule: Q01DX001 (ip), vehicle: saline with Tween-80, higher = longer survival) was 99 % of control and 121 % of control and the T/C (endpoint: median survival time, dose: 160.0 mg/kg/injection, schedule: Q01DX001 (ip), vehicle: Klucel (hydroxypropylcellulose) (HPC), higher = longer survival) was 113 % of control. The T/C (endpoint: median tumor weight (est.), dose: 25.0 mg/kg/injection, schedule: Q01DX001 (ip), vehicle: DMSO, higher = larger tumour) was 39 % of control, the T/C (endpoint: median tumor weight (est.), dose: 25.0 mg/kg/injection, schedule: Q01DX001 (sc), vehicle: olive oil, sesame oil, peanut oil, higher = larger tumour) was 80 % of control and the T/C (endpoint: median tumor weight (est.), dose: 38.0 mg/kg/injection, schedule: Q01DX001 (sc), vehicle: olive oil, sesame oil, peanut oil, higher = larger tumour) was 60 % of control. For the same molecule, the T/C (endpoint: median tumor weight (est.), dose: 57.0 mg/kg/injection, schedule: Q01DX001 (ip), vehicle: DMSO, higher = larger tumour) was 3 % of control, the T/C (endpoint: median tumor weight (est.), dose: 57.0 mg/kg/injection, schedule: Q01DX001 (sc), vehicle: olive oil, sesame oil, peanut oil, higher = larger tumour) was 52 % of control and the T/C (endpoint: median tumor weight (est.), dose: 80.0 mg/kg/injection, schedule: Q01DX001 (ip), vehicle: saline with Tween-80, higher = larger tumour) was 53 % of control. For the same molecule, the T/C (endpoint: median tumor weight (est.), dose: 85.0 mg/kg/injection, schedule: Q01DX001 (sc), vehicle: olive oil, sesame oil, peanut oil, higher = larger tumour) was 36 % of control, the T/C (endpoint: median tumor weight (est.), dose: 161.0 mg/kg/injection, schedule: Q01DX001 (ip), vehicle: saline with Tween-80, higher = larger tumour) was 60 % of control and the T/C (endpoint: median tumor weight (est.), dose: 215.0 mg/kg/injection, schedule: Q01DX001 (ip), vehicle: saline with Tween-80, higher = larger tumour) was 7 % of control.
In the case of CCCCN(C)N=Nc1ccc(CCC(=O)OCC)cc1, the T/C (endpoint: median tumor weight (est.), dose: 72.0 mg/kg/injection, schedule: Q01DX009 (ip), vehicle: saline with Tween-80, higher = larger tumour) is reported as 107 % of control, the T/C (endpoint: median tumor weight (est.), dose: 145.0 mg/kg/injection, schedule: Q01DX009 (ip), vehicle: saline with Tween-80, higher = larger tumour) is reported as 95 % of control and the T/C (endpoint: median tumor weight (est.), dose: 290.0 mg/kg/injection, schedule: Q01DX009 (ip), vehicle: saline with Tween-80, higher = larger tumour) is reported as 61 % of control.
CCN(C=O)CC was tested, and the T/C (endpoint: mean tumor weight, dose: 88.0 mg/kg/injection, schedule: Q01DX011 (ip), vehicle: other, higher = larger tumour) was 89 % of control, the T/C (endpoint: mean tumor weight, dose: 133.0 mg/kg/injection, schedule: Q01DX011 (ip), vehicle: other, higher = larger tumour) was 102 % of control and the T/C (endpoint: mean tumor weight, dose: 200.0 mg/kg/injection, schedule: Q01DX011 (ip), vehicle: other, higher = larger tumour) was 68 % of control. The T/C (endpoint: mean tumor weight, dose: 300.0 mg/kg/injection, schedule: Q01DX011 (ip), vehicle: other, higher = larger tumour) was 87 % of control, the T/C (endpoint: mean tumor weight, dose: 300.0 mg/kg/injection, schedule: Q01DX011 (ip), vehicle: saline, higher = larger tumour) was 65 % of control and the T/C (endpoint: mean tumor weight, dose: 600.0 mg/kg/injection, schedule: Q01DX011 (ip), vehicle: saline, higher = larger tumour) was 62 % of control. The T/C (endpoint: mean tumor weight, dose: 900.0 mg/kg/injection, schedule: Q01DX011 (ip), vehicle: saline, higher = larger tumour) was 90 % of control.
CC(=O)CC(=O)Nc1ccc(Cl)cc1 was tested, and the T/C (endpoint: mean tumor weight, dose: 111.0 mg/kg/injection, schedule: Q01DX011 (ip), vehicle: other, higher = larger tumour) was 151 % of control, the T/C (endpoint: mean tumor weight, dose: 166.0 mg/kg/injection, schedule: Q01DX011 (ip), vehicle: other, higher = larger tumour) was 156 % of control and the T/C (endpoint: mean tumor weight, dose: 250.0 mg/kg/injection, schedule: Q01DX011 (ip), vehicle: other, higher = larger tumour) was 121 % of control. The T/C (endpoint: mean tumor weight, dose: 500.0 mg/kg/injection, schedule: Q01DX011 (ip), vehicle: other, higher = larger tumour) was 64 % of control.
For O=CN(O)CC(=O)O, the T/C (endpoint: median survival time, dose: 3000.0 mg/kg/injection, schedule: Q01DX001 (ip), vehicle: saline, higher = longer survival) was 115 % of control.
With COc1cc2cc(c1Cl)N(C)C(=O)C[C@H](OC(=O)[C@H](C)N(C)C(C)=O)[C@]1(C)O[C@H]1[C@H](C)[C@@H]1C[C@@](O)(NC(=O)O1)[C@H](OC)C=C/C=C(\C)C2 the T/C (endpoint: median survival time, dose: 0.04 mg/kg/injection, schedule: Q04DX003 (ip), vehicle: saline, higher = longer survival) was 112 % of control, the T/C (endpoint: median survival time, dose: 0.08 mg/kg/injection, schedule: Q04DX003 (ip), vehicle: saline, higher = longer survival) was 102 % of control and the T/C (endpoint: median survival time, dose: 0.15 mg/kg/injection, schedule: Q04DX003 (ip), vehicle: saline, higher = longer survival) was 110 % of control. The T/C (endpoint: median survival time, dose: 0.6 mg/kg/injection, schedule: Q04DX003 (ip), vehicle: saline, higher = longer survival) was 96 % of control.
With CCCCCC/C=C/[N+]([O-])=NC(COC)C(C)O (stereo not given) the T/C (endpoint: mean tumor weight, dose: 5.0 mg/kg/injection, schedule: Q01DX011 (ip), vehicle: carboxymethylcellulose (CMC), higher = larger tumour) was 84 % of control and the T/C (endpoint: mean tumor weight, dose: 10.0 mg/kg/injection, schedule: Q01DX011 (ip), vehicle: carboxymethylcellulose (CMC), higher = larger tumour) was 96 % of control.
With COc1cc(O)c2c(c1)Cc1cc(C)cc(O)c1C2=O the T/C (endpoint: median survival time, dose: 0.1 mg/kg/injection, schedule: Q01DX009 (ip), vehicle: saline with Tween-80, higher = longer survival) was 117 % of control, the T/C (endpoint: median survival time, dose: 0.2 mg/kg/injection, schedule: Q01DX009 (ip), vehicle: saline with Tween-80, higher = longer survival) was 120 % of control and 122 % of control and the T/C (endpoint: median survival time, dose: 0.4 mg/kg/injection, schedule: Q01DX009 (ip), vehicle: saline with Tween-80, higher = longer survival) was 108 % of control. The T/C [1] was 110 % of control.
With COc1cccc(C=O)c1O the T/C (endpoint: mean tumor weight, dose: 12.5 mg/kg/injection, schedule: Q01DX011 (ip), vehicle: carboxymethylcellulose (CMC), higher = larger tumour) was 106 % of control, the T/C (endpoint: mean tumor weight, dose: 25.0 mg/kg/injection, schedule: Q01DX011 (ip), vehicle: carboxymethylcellulose (CMC), higher = larger tumour) was 58 % of control and the T/C (endpoint: mean tumor weight, dose: 50.0 mg/kg/injection, schedule: Q01DX011 (ip), vehicle: carboxymethylcellulose (CMC), higher = larger tumour) was 88 % of control.
In the case of N#CCC(=O)O, the T/C (endpoint: mean tumor weight, dose: 29.0 mg/kg/injection, schedule: Q01DX011 (ip), vehicle: saline, higher = larger tumour) is reported as 103 % of control, the T/C (endpoint: mean tumor weight, dose: 44.0 mg/kg/injection, schedule: Q01DX011 (ip), vehicle: saline, higher = larger tumour) is reported as 104 % of control and the T/C (endpoint: mean tumor weight, dose: 66.0 mg/kg/injection, schedule: Q01DX011 (ip), vehicle: other, higher = larger tumour) is reported as 47 % of control. The T/C (endpoint: mean tumor weight, dose: 66.0 mg/kg/injection, schedule: Q01DX011 (ip), vehicle: saline, higher = larger tumour) was 64 % of control.
In the case of Nc1nc(=S)c2ncn(C3CC(O)C(CO)O3)c2[nH]1 (stereo not given), the T/C (endpoint: median survival time, dose: 4.0 mg/kg/injection, schedule: Q01DX009 (ip), vehicle: saline, higher = longer survival) is reported as 122 % of control, the T/C (endpoint: median survival time, dose: 8.0 mg/kg/injection, schedule: Q01DX009 (ip), vehicle: saline, higher = longer survival) is reported as 118 % of control and the T/C (endpoint: median survival time, dose: 16.0 mg/kg/injection, schedule: Q01DX009 (ip), vehicle: saline, higher = longer survival) is reported as 108 % of control. The T/C (endpoint: median survival time, dose: 64.0 mg/kg/injection, schedule: Q01DX009 (ip), vehicle: saline, higher = longer survival) was 113 % of control.
With CC(=O)Oc1ccc(/C=N/NC(N)=S)nc1 the T/C (endpoint: median survival time, dose: 9.4 mg/kg/injection, schedule: Q01DX009 (ip), vehicle: saline with Tween-80, higher = longer survival) was 97 % of control, the T/C (endpoint: median survival time, dose: 18.8 mg/kg/injection, schedule: Q01DX009 (ip), vehicle: saline with Tween-80, higher = longer survival) was 97 % of control and the T/C [2] was 100 % of control. The T/C (endpoint: median survival time, dose: 37.5 mg/kg/injection, schedule: Q01DX009 (ip), vehicle: saline with Tween-80, higher = longer survival) was 101 % of control, the T/C [3] was 107 % of control and the T/C (endpoint: median survival time, dose: 75.0 mg/kg/injection, schedule: Q01DX009 (ip), vehicle: saline with Tween-80, higher = longer survival) was 117 % of control. For the same molecule, the T/C (endpoint: median survival time, dose: 100.0 mg/kg/injection, schedule: Q01DX009 (ip), vehicle: saline with Tween-80, higher = longer survival) was 117 % of control, the T/C (endpoint: median tumor weight (est.), dose: 24.0 mg/kg/injection, schedule: Q03HX024 (ip), vehicle: saline with Tween-80, higher = larger tumour) was 96 % of control and the T/C (endpoint: median tumor weight (est.), dose: 36.0 mg/kg/injection, schedule: Q03HX024 (ip), vehicle: saline with Tween-80, higher = larger tumour) was 41 % of control.
With O=NN(CCCl)C(=O)NC1CCC(CC2CCC(NC(=O)N(CCCl)N=O)CC2)CC1 (stereo not given) the T/C (endpoint: median tumor weight (est.), dose: 46.0 mg/kg/injection, schedule: Q01DX001 (ip), vehicle: gum acacia, higher = larger tumour) was 80 % of control, the T/C (endpoint: median tumor weight (est.), dose: 93.0 mg/kg/injection, schedule: Q01DX001 (ip), vehicle: gum acacia, higher = larger tumour) was 76 % of control and the T/C (endpoint: median tumor weight (est.), dose: 187.0 mg/kg/injection, schedule: Q01DX001 (ip), vehicle: gum acacia, higher = larger tumour) was 55 % of control. The T/C (endpoint: median tumor weight (est.), dose: 250.0 mg/kg/injection, schedule: Q01DX001 (ip), vehicle: gum acacia, higher = larger tumour) was 10 % of control and the T/C (endpoint: median tumor weight (est.), dose: 375.0 mg/kg/injection, schedule: Q01DX001 (ip), vehicle: gum acacia, higher = larger tumour) was 3 % of control.
